Experimental data taken from patent publication US20210139959A1, “MODIFIED NUCLEOTIDE TRIPHOSPHATES FOR MOLECULAR ELECTRONIC SENSORS” (priority 2016, published 2021).

System: polymerase, e.g., E. coli Pol I
Conditions: DNA template A20-C3-A30-G (SEQ ID NO: 3), FIG. 9; T signals are increased current; interpretation of the data
Text: In this example, 7-deaza-dGTP (see FIG. 14B) was used as a modified dGTP. The signals were obtained for the DNA template {GTCA}10-[sequence] (SEQ ID NO: 2), comprising the 7-deaza modified dGTP.
In this embodiment, the signal data are obtained for the DNA template {GTCA}10-[sequence] (SEQ ID NO: 2), when a modified dGTP is used (7-deaza dGTP of FIG. 14B).

Q: Which “modified dGTP incorporation signal (current)” value does the source give for `Nc1nc2c(ccn2[C@H]2C[C@H](O)[C@@H](COP(=O)(O)OP(=O)(O)OP(=O)(O)O)O2)c(=O)[nH]1` [7-deaza dGTP, 7-deaza-2′-deoxyguanosine-5′-triphosphate] here?
A: The value was “reduction in current”.
